Test results as given in patent US10294217B2, “Fluoroindole derivatives as muscarinic M1 receptor positive allosteric modulators” (Suven Life Sciences Limited, priority 2015, dated 2019).

Columns and labels:
[1] = tested on: Male Wistar rats; assay: Object recognition task model; type: in vivo; conditions: p.o.; for Exploration time Familiar object / Exploration time Novel object: mean ± S.E.M, choice trial 24 hours after T1
Experimental: Object Recognition Task Model
The cognition enhancing properties of compounds of this invention were estimated by using this model.
Male Wistar rats (8-10 weeks old) were used as experimental animals. Four animals were housed in each cage. Animals were kept on 20% food deprivation from a day prior to experimentation. Water was provided ad libitum throughout the experiment. Animals were maintained on a 12 hours light/dark cycle in temperature and humidity controlled room. The experiment was carried out in an open field made up of acrylic. Rats were habituated to individual arenas (open field) for 1 hour in the absence of any objects on day 1.
One group of 12 rats received vehicle and another set of animals received compound of the formula (I), before the familiar (T1) and choice (T2) trials. During the familiarization phase, (T1), the rats were placed individually in the arena for 3 minutes, in which two identical objects (a1 and a2) were positioned 10 cm from the wall. 24 hours after T1, trial for long-term memory test was performed. The same rats were placed in the same arena as they were placed in T1 trial. During the choice phase (T2) rats were allowed to explore the arena for 3 minutes in presence of a copy of familiar object (a3) and one novel object (b). During the T1 and T2 trial, explorations of each object (defined as sniffing, licking, chewing or having moving vibrissae whilst directing the nose towards the object at a distance of less than 1 cm) were recorded using stopwatch. • T1 is the total time spent exploring the familiar objects (a1+a2). • T2 is the total time spent exploring the familiar object and novel object (a3+b). • Discriminative index=Time spent with novel object/(time spent with novel and familiar object).
The object recognition test was performed as described by Behavioural Brain Research, 1988, 31, 47-59 and the results are provided in table 5.

[2] = Protein binding assay (HT dialysis), rat matrices; type: in vitro ADME; conditions: Mean ± SEM
Experimental: (§1) Unbound fractions of new chemical entities in plasma, brain homogenate and liver microsomes were determined using high-throughput dialysis (HT dialysis). Briefly, dialysis membranes were soaked in deionized water for 20 minutes and then in deionized water with 30% ethanol for 15 minutes and finally in phosphate buffer until use. Membranes were rinsed in phosphate buffer before assembling. The membranes were layered between teflon bars of dialysis assembly. Stock solutions of test compounds were prepared at 10 mM in DMSO, diluted to 1 mM in acetonitrile and further diluted to 100 μM in mixture of water and acetonitrile (1:1 v/v). Human plasma (pool of 3) was prepared from human blood (3 donors) by centrifuging at 4000 rpm for 10 min at 4° C. Rat and dog blood were obtained on the day of the study and centrifuged to obtain plasma. Rat brains were isolated, cleaned and homogenized with 2 volumes of buffer (3 fold dilution). Liver microsomes were prepared at 0.5 mg/mL in phosphate buffer (100 mM, pH 7.4). The dialysate chambers were loaded with 150 μL of 100 mM phosphate buffer (pH 7.4) in triplicates. The matrix chambers were loaded with 150 μL of the plasma or brain homogenate or microsomal suspension spiked with test compounds at a final concentration of 1 μM. 50 μL of the sample was removed from both the chambers at 0 h. The plate was sealed and incubated at 37° C. for 6 h at 100 rpm. After 6 h, 50 μL of the sample was removed from both the chambers. Equal volumes of buffer or human plasma/microsomal suspension were added to the plasma/microsomal and buffer samples respectively to create identical sample matrices for analysis. The samples were precipitated with 150 μL of acetonitrile containing fluoxetine as an internal standard. All the samples were centrifuged at 10000 rpm for 10 minutes at 4° C.

[3] = Rodent pharmacokinetic study; type: in vivo, Male Wistar rats; conditions: male, Wistar; for AUC(0-t) / half-life / Cmax: rat plasma; for clearance / bioavailability: plasma, rat; for bioavailability: oral 3 mg/kg vs i.v. 1 mg/kg, read-out: % F (Bioavailability)
Experimental: Rodent Pharmacokinetic Study
Male Wistar rats (260±50 grams) were used as experimental animals. Animals were housed individually in polypropylene cage. Two days prior to study, male Wistar rats were anesthetized with isoflurane for surgical placement of jugular vein catheter. Rats were randomly divided for oral (3 mg/kg) and intravenous (i.v.) (1 mg/kg) dosing (n=3/group) and fasted overnight before oral dosing (p.o.). However, rats allocated to intravenous dosing food and water was provided ad libitum.
At pre-determined point, blood was collected through jugular vein and replenished with an equivalent volume of normal saline. Collected blood was transferred into a labeled eppendorf tube containing 10 μL of heparin as an anticoagulant. Typically blood samples were collected at following time points: 0.08, 0.25, 0.5, 1, 2, 4, 6, 8, and 24 hours post dose. Blood was centrifuged at 4000 rpm for 10 minutes. Plasma was separated and stored frozen at −80° C. until analysis. The concentrations of the test compounds were quantified in plasma by qualified LC-MS/MS method using suitable extraction technique. The test compounds were quantified in the calibration range around 1-1000 ng/mL in plasma. Study samples were analyzed using calibration samples in the batch and quality control samples spread across the batch.
Pharmacokinetic parameters Cmax, AUCt, T1/2, Clearance, and Bioavailability (% F) were calculated by non-compartmental model using standard non-compartmental model by using Phoenix WinNonlin 6.0.2 or 6.0.3 version Software package and the results are tabulated in table 3.

[4] = Rodent brain penetration study; type: in vivo, Male Wistar rats; conditions: male, Wistar, rat, oral; 3 mg/kg, p.o.; brain-plasma ratio; read-out: Single dose Rat Brain Penetration (Cb/Cp)
Experimental: WO2015044072A1 patent application discloses indole derivatives as M1 PAM compounds. […] This makes these compounds less ideal for the treatment of CNS disorders.
Rodent Brain Penetration Study
Male Wistar rats (260±40 grams) were used as experimental animals. Three animals were housed in each cage. Animals were given water and food ad libitum throughout the experiment and maintained on a 12 hours light/dark cycle.
Brain penetration was determined in discrete manner in rats. One day prior to dosing day, male Wistar rats were acclimatized and randomly grouped according to their weight. At each time point (0.5, 1 and 2 hours) n=3 animals were used.
The test compounds were suitably preformulated and administered orally at (free base equivalent) 3 mg/kg. Blood samples were removed via cardiac puncture by using isoflurane anesthesia. The animals were sacrificed to collect brain tissue. Plasma was separated and brain samples were homogenized and stored frozen at ˜20° C. until analysis. The concentrations of the test compounds in plasma and brain were determined using LC-MS/MS method.
The test compounds were quantified in plasma and brain homogenate by qualified LC-MS/MS method using suitable extraction technique. The test compounds were quantified in the calibration range of 1-500 ng/mL in plasma and brain homogenate. Study samples were analyzed using calibration samples in the batch and quality control samples spread across the batch.

[5] = Protein binding assay (HT dialysis), human matrices; type: in vitro ADME; conditions: Mean ± SEM
Experimental: as §1

[6] = pH 7.4, Rat brain homogenate, 37° C., n = 3, read-out: Fu Brain
[7] = pH 7.4, Rat liver microsomes 0.5 mg/mL, n = 3, read-out: Fu Microsomes
[8] = pH 7.4, Rat plasma, 37° C., n = 3, read-out: Fu Plasma
[9] = pH 7.4, Human liver microsomes 0.5 mg/mL, n = 3, read-out: Fu Microsomes
[10] = pH 7.4, Human plasma, 37° C., n = 3, read-out: Fu Plasma

Row | SMILES | fraction unbound at 6 h, 1 μM [2, 6] | fraction unbound at 6 h, 1 μM [2, 7] | fraction unbound at 6 h, 1 μM [2, 8] | AUC(0-t) ([3]; iv, 1 mg/kg) [µg·h/mL] | half-life ([3]; iv, 1 mg/kg) [h] | clearance ([3]; iv, 1 mg/kg) [L/h/kg] | bioavailability [3] [%] | AUC(0-t) ([3]; oral, 3 mg/kg) [µg·h/mL] | Cmax ([3]; oral, 3 mg/kg) [µg/mL] | half-life ([3]; oral, 3 mg/kg) [h] | Kp [4] | fraction unbound at 6 h, 1 μM [5, 9] | fraction unbound at 6 h, 1 μM [5, 10] | Inference ([1]; 0.3 mg/kg) | Exploration time Familiar object ([1]; 0.3 mg/kg) [s] | Exploration time Novel object ([1]; 0.3 mg/kg) [s] | Inference ([1]; 1 mg/kg) | Exploration time Familiar object ([1]; 1 mg/kg) [s] | Exploration time Novel object ([1]; 1 mg/kg) [s] | also measured
1 | Cl.O=C(N[C@H]1CCNC[C@H]1F)c1cn(Cc2ccnc(F)c2)c2c(F)ccc(F)c12 (single isomer, unassigned; isomer-i) [Example 22, Cis-N-(3-Fluoropiperidin-4-yl)-1-(2-fluoropyridin-4-ylmethyl)-4,7-difluoro-1H-indole-3-carboxamide hydrochloride (Isomer-I)] | 0.067 ± 0.002 | 0.902 ± 0.006 | 0.315 ± 0.03 | 0.908 ± 0.198 | 7.6 ± 1.7 | 1.03 ± 0.198 | 60 ± 5 | 1.65 ± 0.147 | 0.207 ± 0.076 | 4.8 ± 2.8 | 0.46 ± 0.11 | 0.788 ± 0.031 | 0.309 ± 0.008 | – | – | – | – | – | – | Inference ([1]; 3 mg/kg): Active; Exploration time Familiar object ([1]; 3 mg/kg): 8.21 ± 0.70 s; Exploration time Novel object ([1]; 3 mg/kg): 15.72 ± 2.25 s
2 | Cn1cc(Cn2cc(C(=O)N[C@H]3CCCC[C@@H]3O)c3c(F)cccc32)cn1 [Example 1, N-[(1S,2S)-2-Hydroxycyclohexyl]-1-(1-methyl-1H-pyrazol-4-ylmethyl)-4-fluoro-1H-indole-3-carboxamide] | 0.166 ± 0.01 | 0.836 ± 0.04 | 0.267 ± 0.03 | 2.25 ± 0.19 | 3 ± 0.3 | 0.438 ± 0.024 | 76 ± 7 | 5.16 ± 0.464 | 1.19 ± 0.081 | 2.9 ± 0.2 | 0.3 ± 0.05 | – | 0.197 ± 0.01 | Active | 11.31 ± 1.07 | 28.92 ± 3.54 | – | – | – | –
3 | O=C(N[C@H]1CCCC[C@@H]1O)c1cn(Cc2ccnc(Cl)c2)c2cccc(F)c12 [Example 2, N-[(1S,2S)-2-Hydroxycyclohexyl]-1-(2-chloropyridin-4-ylmethyl)-4-fluoro-1H-indole-3-carboxamide] | 0.015 ± 0.001 | 0.679 ± 0.081 | 0.068 ± 0.002 | 1.15 ± 0.245 | 1.9 ± 0.4 | 0.966 ± 0.168 | 63 ± 17 | 2.16 ± 0.599 | 0.632 ± 0.167 | 1.9 ± 0.2 | 0.95 ± 0.17 | 0.459 ± 0.046 | 0.04 ± 0.002 | – | – | – | Active | 9.06 ± 1.75 | 15.09 ± 2.19 | –
4 | Cn1cc(Cn2cc(C(=O)N[C@H]3CCCC[C@@H]3O)c3c(F)ccc(F)c32)cn1 [Example 5, N-[(1S,2S)-2-Hydroxycyclohexyl]-1-(1-methyl-1H-pyrazol-4-ylmethyl)-4,7-difluoro-1H-indole-3-carboxamide] | 0.128 ± 0.01 | 0.779 ± 0.01 | 0.21 ± 0.01 | 2.92 ± 1.43 | 4 ± 1.7 | 0.426 ± 0.258 | 90 ± 33 | 7.87 ± 2.86 | 2.68 ± 0.664 | 3.3 ± 0.3 | 0.5 ± 0.04 | 0.899 ± 0.03 | 0.077 ± 0.01 | Active | 11.00 ± 0.81 | 19.64 ± 1.74 | – | – | – | –
5 | O=C(N[C@H]1CCCC[C@@H]1O)c1cn(Cc2ccnc(F)c2)c2cccc(F)c12 [Example 7, N-[(1S,2S)-2-Hydroxycyclohexyl]-1-(2-fluoropyridin-4-ylmethyl)-4-fluoro-1H-indole-3-carboxamide] | 0.06 ± 0.004 | 0.8 ± 0.04 | 0.2 ± 0.02 | 1.12 ± 0.119 | 2 ± 0.4 | 0.852 ± 0.12 | 67 ± 14 | 2.26 ± 0.471 | 0.783 ± 0.254 | 1.4 ± 0.2 | 0.61 ± 0.01 | 0.7 ± 0.03 | 0.1 ± 0.004 | – | – | – | Active | 9.16 ± 0.83 | 19.56 ± 1.96 | –
